Data published in ChEMBL document CHEMBL1201862, “PubChem BioAssay data set” (2004).
Values joined by “and” are separate entries in the source; they are usually repeats but may differ in a detail not shown here. Identical values can stand only once.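 Compound exposure: 48 hours, 5 concentrations, 96-well plates. Here, GI50 denotes the concentration required for 50% inhibition of growth.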 Active and inactive are the calls of the source. Rule as the data show it: active = GI50 up to about 1.1 µM and inactive = higher.

Columns and labels:
Test in all cases: inhibition of tumour cell growth, NCI panel, 48 h
ACHN = tested on: ACHN
SF-268 = tested on: SF-268
CCRF-CEM = tested on: CCRF-CEM
NCI-H226 = tested on: NCI-H226
MCF7 = tested on: MCF7
LOX IMVI = tested on: LOX IMVI
HCT-116 = tested on: HCT-116
HT-29 = tested on: HT-29
SNB-75 = tested on: SNB-75
786-0 = tested on: 786-0
HL-60 = tested on: HL-60
OVCAR-8 = tested on: OVCAR-8
M14 = tested on: M14
HCT-15 = tested on: HCT-15
UACC-257 = tested on: UACC-257
A549 = tested on: A549
OVCAR-5 = tested on: OVCAR-5
Malme-3M = tested on: Malme-3M
OVCAR-3 = tested on: OVCAR-3
HOP-62 = tested on: HOP-62

| SMILES | GI50 (ACHN) | GI50 (SF-268) | GI50 (CCRF-CEM) | GI50 (NCI-H226) | GI50 (MCF7) | GI50 (LOX IMVI) | GI50 (HCT-116) | GI50 (HT-29) | GI50 (SNB-75) | GI50 (786-0) | GI50 (HL-60) | GI50 (OVCAR-8) | GI50 (M14) | GI50 (HCT-15) | GI50 (UACC-257) | GI50 (A549) | GI50 (OVCAR-5) | GI50 (Malme-3M) | GI50 (OVCAR-3) | GI50 (HOP-62) |
| --- | --- | --- | --- | --- | --- | --- | --- | --- | --- | --- | --- | --- | --- | --- | --- | --- | --- | --- | --- | --- |
| CSC1=C(C(=O)Nc2ccc(C)cc2)C(N)=NC1=O | > 100 µM (inactive) | > 100 µM (inactive) | > 100 µM (inactive) | > 100 µM (inactive) | > 100 µM (inactive) | > 100 µM (inactive) | > 100 µM (inactive) | > 100 µM (inactive) | > 100 µM (inactive) | > 100 µM (inactive) | > 100 µM (inactive) | > 100 µM (inactive) | > 100 µM (inactive) | > 100 µM | > 100 µM (inactive) | – | – | – | – | – |
| CN(C)c1nc2oc(-c3ccccc3)c(-c3ccccc3)c2c2nncn12 | > 100 µM (inactive) | > 100 µM (inactive) | > 100 µM (inactive) | > 100 µM (inactive) | > 100 µM (inactive) | > 100 µM (inactive) | > 100 µM (inactive) | > 100 µM (inactive) | 53.5 µM (inactive) | > 100 µM (inactive) | – | > 100 µM (inactive) | > 100 µM (inactive) | > 100 µM | > 100 µM (inactive) | > 100 µM (inactive) | > 100 µM (inactive) | – | – | – |
| O=S(=O)(O)c1ccc(/N=N/c2ccc(/N=N/c3c(O)ccc4cc(S(=O)(=O)O)ccc34)cc2)cc1 | > 100 µM (inactive) | > 100 µM (inactive) | > 100 µM (inactive) | > 100 µM (inactive) | > 100 µM (inactive) | – | > 100 µM (inactive) | > 100 µM (inactive) | > 100 µM (inactive) | > 100 µM (inactive) | > 100 µM (inactive) | > 100 µM (inactive) | > 100 µM (inactive) | > 100 µM | > 100 µM (inactive) | > 100 µM (inactive) | > 100 µM (inactive) | > 100 µM (inactive) | > 100 µM (inactive) | > 100 µM (inactive) |
| Nc1ccc2nc3ccc(=O)cc-3n(-c3ccccc3)c2c1 | > 100 µM (inactive) | 58.2 µM (inactive) | 62.8 µM (inactive) | 67.9 µM (inactive) | 93.3 µM (inactive) | – | 34.4 µM (inactive) | > 100 µM (inactive) | 28.2 µM (inactive) | 35.8 µM (inactive) | 59 µM (inactive) | > 100 µM (inactive) | > 100 µM (inactive) | > 100 µM | – | > 100 µM (inactive) | > 100 µM (inactive) | > 100 µM (inactive) | 31.8 µM (inactive) | 30.5 µM (inactive) |
| Cc1ncc(CO)c(CN)c1O | > 100 µM (inactive) | > 100 µM (inactive) | > 100 µM (inactive) | > 100 µM (inactive) | > 100 µM (inactive) | > 100 µM (inactive) | > 100 µM (inactive) | > 100 µM (inactive) | – | > 100 µM (inactive) | 41.9 µM (inactive) | > 100 µM (inactive) | > 100 µM (inactive) | > 100 µM | > 100 µM (inactive) | > 100 µM (inactive) | > 100 µM (inactive) | > 100 µM (inactive) | > 100 µM (inactive) | > 100 µM (inactive) |
| COC(=O)C12OC3CO[Si](C(C)C)(C(C)C)O[Si](C(C)C)(C(C)C)OC3C1Oc1nc(=O)ccn12 (stereo not drawn) | 17.9 µM (inactive) | 12 µM (inactive) | 17.3 µM (inactive) | 15.8 µM (inactive) | 16 µM (inactive) | 17.4 µM (inactive) | 16.1 µM (inactive) | 15.4 µM (inactive) | – | 17.7 µM (inactive) | 23.4 µM (inactive) | 15.5 µM (inactive) | 17.8 µM (inactive) | 16.5 µM | 15.6 µM (inactive) | 15.2 µM (inactive) | 15.2 µM (inactive) | 14.8 µM (inactive) | 15.8 µM (inactive) | 18.1 µM (inactive) |
| COc1nc(=O)n(C2CC(N=[N+]=[N-])C(CO)O2)cc1C (stereo not drawn) | > 100 µM (inactive) | > 100 µM (inactive) | > 100 µM (inactive) | > 100 µM (inactive) | > 100 µM (inactive) | > 100 µM (inactive) | > 100 µM (inactive) | > 100 µM (inactive) | – | > 100 µM (inactive) | > 100 µM (inactive) | > 100 µM (inactive) | > 100 µM (inactive) | > 100 µM | > 100 µM (inactive) | > 100 µM (inactive) | > 100 µM (inactive) | > 100 µM (inactive) | > 100 µM (inactive) | > 100 µM (inactive) |
| CC(=O)Nc1ccc(S(=O)(=O)Nc2nnc(S(N)(=O)=O)s2)cc1 | > 100 µM (inactive) | > 100 µM (inactive) | – | > 100 µM (inactive) | > 100 µM (inactive) | > 100 µM (inactive) | > 100 µM (inactive) | > 100 µM (inactive) | > 100 µM (inactive) | > 100 µM (inactive) | > 100 µM (inactive) | – | > 100 µM (inactive) | > 100 µM | – | > 100 µM (inactive) | > 100 µM (inactive) | > 100 µM (inactive) | – | – |
| COC(=O)CCCCC/C(=C\C(=O)C(Cl)(Cl)Cl)OC | 39.7 µM (inactive) | 24.4 µM (inactive) | 15.4 µM (inactive) | – | 23.3 µM (inactive) | 20.9 µM (inactive) | 20.2 µM (inactive) | 30.5 µM (inactive) | 21.4 µM (inactive) | 24.9 µM (inactive) | 22.3 µM (inactive) | 25.4 µM (inactive) | 31.1 µM (inactive) | 24.2 µM | 21.8 µM (inactive) | 45.6 µM (inactive) | > 100 µM (inactive) | 21.1 µM (inactive) | 26.6 µM (inactive) | 33.7 µM (inactive) |
| Cc1c2c(n(CC(c3ccccc3)c3ccccc3)c1C)NN=C(C#N)S2(=O)=O | > 100 µM (inactive) | 64.1 µM (inactive) | – | > 100 µM (inactive) | > 100 µM (inactive) | > 100 µM (inactive) | 74 µM (inactive) | > 100 µM (inactive) | 98.4 µM (inactive) | > 100 µM (inactive) | – | > 100 µM (inactive) | > 100 µM (inactive) | > 100 µM | > 100 µM (inactive) | > 100 µM (inactive) | > 100 µM (inactive) | – | > 100 µM (inactive) | > 100 µM (inactive) |
| CCCCCCCCCCCCNC(C)=O | 23.2 µM (inactive) | 14.3 µM (inactive) | 14.4 µM (inactive) | 18.7 µM (inactive) | 17.1 µM (inactive) | 6.85 µM (inactive) | 17.9 µM (inactive) | 19.5 µM (inactive) | 23.6 µM (inactive) | 16.8 µM (inactive) | – | 18.9 µM (inactive) | 17 µM (inactive) | 16.9 µM | 23.2 µM (inactive) | 27 µM (inactive) | – | 17.7 µM (inactive) | 17.7 µM (inactive) | 14.3 µM (inactive) |
| COc1ccc([C@@]23Oc4cc(OC)cc(OC)c4[C@]2(O)[C@H](O)[C@H](C(N)=O)[C@H]3c2ccccc2)cc1 [DIDESMETHYLROCAGLAMIDE] | < 0.01 µM (active) | < 0.01 µM (active) | < 0.01 µM (active) | < 0.01 µM (active) | < 0.01 µM (active) | < 0.01 µM (active) | < 0.01 µM (active) | < 0.01 µM (active) | – | < 0.01 µM (active) | < 0.0192 µM (active) | < 0.01 µM (active) | < 0.01 µM (active) | < 0.0142 µM | < 0.0162 µM (active) | < 0.01 µM (active) | 0.0102 µM (active) | < 0.01 µM (active) | < 0.01 µM (active) | < 0.01 µM (active) |
| O=C(c1ccccc1)c1ccc(N2C(=O)/C(=C/c3ccccc3S)N=C2c2ccccc2)c(N2C(=O)/C(=C/c3ccccc3S)N=C2c2ccccc2)c1 | 60.4 µM (inactive) | 39.9 µM (inactive) | 22.2 µM (inactive) | – | 45.6 µM (inactive) | 24.9 µM (inactive) | 66.4 µM (inactive) | 86.5 µM (inactive) | 21.2 µM (inactive) | > 100 µM (inactive) | 11.8 µM (inactive) | 27.8 µM (inactive) | 38.2 µM (inactive) | 53.3 µM | > 100 µM (inactive) | 33.2 µM (inactive) | > 100 µM (inactive) | – | 20.1 µM (inactive) | 40.7 µM (inactive) |
| Cc1cc(=O)[nH]c(-n2[nH]c3c(c2=O)CCCC3)n1 | 49.4 µM (inactive) | 28.2 µM (inactive) | 34.5 µM (inactive) | > 100 µM (inactive) | 63 µM (inactive) | – | 41.9 µM (inactive) | 44.5 µM (inactive) | < 0.01 µM (active) | 57.7 µM (inactive) | 50.5 µM (inactive) | – | 73.1 µM (inactive) | 31.3 µM | 66.5 µM (inactive) | 72.1 µM (inactive) | 69 µM (inactive) | > 100 µM (inactive) | – | – |
| NC1=NC(=O)/C(=C2\CCNC(=O)c3[nH]c(Br)cc32)N1 [HYMENIALDISINE] | 45.3 µM (inactive) | 8.93 µM (inactive) and 5.09 µM (inactive) | 2.43 µM (inactive) and 2.9 µM (inactive) | – | 40.9 µM (inactive) and 80.7 µM (inactive) | 4.89 µM (inactive) and 4.57 µM (inactive) | 7.16 µM (inactive) and 5.57 µM (inactive) | – | 34.8 µM (inactive) and 40 µM (inactive) | 27.5 µM (inactive) | 1.6 µM (inactive) and 1.66 µM (inactive) | 7.21 µM (inactive) and 10.5 µM (inactive) | 9.89 µM (inactive) | 29.7 µM and 42.5 µM | 23.7 µM (inactive) and 18.3 µM (inactive) | > 70.3 µM (inactive) | > 52.1 µM (inactive) and > 57.5 µM (inactive) | – | – | 40.8 µM (inactive) and 31.9 µM (inactive) |
